Test results: patent US20140309295A1, “ANTIEPILEPTIC, HYPOCHOLESTEROLEMIC AND NEUROPROTECTIVE COMPOUND” (NEURON BIOPHARMA, S.A., priority 2009, published 2014)

Key:
[1] = system: SK-N-MC (human neuroblastoma) line; test: Total cholesterol levels in neuronal cell line; format: cell-based; settings: acid compounds, 20 hours, absence of FBS
Experimental: To carry out this assay, the compounds were activated with NaOH until the lactone form was completely opened.
Both the Hep G2 (human hepatocarcinoma) line and the SK-N-MC (human neuroblastoma) line were obtained from the American Type Culture Collection (ATCC no. HB-8065 and HTB-10 respectively). In all cases strict rules of sterility were followed and the manipulation was performed in class II biological safety cabinets following European standard EN 12469. The cells maintained in passage were seeded in 96-well plates in MEM supplemented with 10% FBS, 2 mM L-glutamine, 1 mM sodium pyruvate, 0.1 mM non-essential amino acids and 0.05 mg/mL gentamicin. In the case of HepG2, 4×10^4 cells/well were seeded and in the case of SK-N-MC 5×10^4 cells/well were seeded. After 24 hours had elapsed from the seeding, the cells were deprived of FBS for 8 hours. The cells were then incubated with the treatments at various concentrations for 20 hours. After the incubation period, the cells were washed with PBS and lysed with a phosphate buffer with 0.5% Triton X-100. […]
The total cholesterol was quantified by means of enzymatic and fluorometric techniques. […] The fluorescence intensity was determined at 530 nm of excitation and 580 nm of emission by means of a fluorometer. The results were normalized by protein, which was determined by means of the BCA technique.

[2] = system: caspase 3/7; test: Inhibition of camptothecin-induced activation of caspase 3/7 in SK-N-MC cells; format: cell-based, human; settings: 50 μM CPT, 6 h
Experimental: The assay was performed on human neuroblastoma SK-N-MC cells in culture from the American Type Culture Collection (ATCC), in all cases strict rules of sterility were followed and the manipulation was performed in class II biological safety cabinets following European standard EN 12469. The cells were maintained in the following culture medium: Minimum Essential Medium Eagle (MEM) supplemented with 1 mM sodium pyruvate, 2 mM L-glutamine, 0.1 mM non-essential amino acids, 0.05 mg/ml gentamicin and 10% fetal bovine serum. The induction of apoptosis on the cells in culture was performed by means of incubation with camptothecin (CPT), which triggers cell apoptosis activation. The apoptosis was determined by means of the measurement of the activation of effector caspases, caspase 3 or caspase 7, for which a kit for the fluorometric detection of active caspase 3/7 (Apo-ONE® Homogeneous Caspase-3/7, Promega) was used. The active caspase 3 or 7 of the cells cause the rupture of a substrate, which leads to fluorescence emission, which is read by means of a fluorometer. The effect of the pretreatment of compound NST0037 at 10 and 40 μM on the activation of caspase 3/7 caused by 50 μM of camptothecin (CPT) in the SK-N-MC cells was thus analyzed. These cells, not exceeding 15 passages, were seeded on 96-well plates treated for adherent cells with a cell concentration of 5×10^4 cells/well, 3 wells of the plate were seeded for each condition of the assay. After 24 hours of cell incubation at 37° C. and 5% CO2, the pretreatment with NST0037 at 10 and 40 μM was performed. […] On the following day, fluorescence was measured (499/521 nm, […]).

[3] = system: adult zebrafish; test: Single-dose toxicity assay (24 hours exposure in water) in adult zebrafish; settings: 14 days post-treatment
From the text: Subsequently they were fed like the rest of the animals. • Weight of the animals: they were weighed at time 0 (before the treatment), at 7 and at 14 days post-treatment.
In this case, the weight of the animals of the different study groups at three established times: before starting the treatments (0 dpt), at day 7 post-treatment and at day 14 post-treatment, was used as a toxicity parameter. […] To that end, the fish were sacrificed at 14 days post-treatment (previously anesthetized) and the samples (whole fish) were included in paraffin. The hematoxylin-eosin staining was subsequently performed in order to conduct the histopathological studies, obtaining a minimum of 6 longitudinal sections per animal, for the purpose of collecting different study areas of the same organ. The following organs were studied: brain, kidney, pancreas, intestine, eye, gills, ovary, testicle, muscle and liver.

[4] = system: Aβ(1-40) and Aβ(1-42) secreted by SK-N-MC cells overexpressing APP; test: Secretion of β-amyloid peptide in SK-N-MC cells overexpressing APP (ELISA); format: cell-based, human
Experimental: The assay was performed on human neuroblastoma SK-N-MC cells in culture from the American Type Culture Collection (ATCC), stably transfected with a construct carried by the APP gene (beta-amyloid precursor protein, Gene ID: 351) in isoform 695, which is the most frequent variant expressed in neurons, whereby overexpression of the APP protein is achieved. In all cases strict rules of sterility were followed and the manipulation was performed in class II biological safety cabinets following European standard EN 12469. […]
The cells were incubated (at 37° C. and 5% CO2) with these treatments for 48 hours, 500 μl of conditioned medium then being collected to perform the measurements. […] The two most frequent Aβ species, 1-40 and 1-42, were measured. […] The amount of Aβ(1-40) and Aβ(1-42) of the conditioned medium was analyzed for each treatment by means of ELISA (Enzyme-linked immunosorbent assay), using the “beta amyloid 40 ELISA” and “beta amyloid 42 ELISA” kit (Biosource), following the recommendations of the manufacturer. The results were quantified by using an increasing concentration curve with synthetic peptides. […]

CCC(CC)C(=O)O[C@H]1C[C@@H](C)C=C2C=C[C@H](C)[C@H](CC[C@@H]3C[C@@H](O)CC(=O)O3)[C@H]21 [NST0037, (1S,2S,6R,8S,8aR)-1,2,6,7,8,8a-hexahydro-3,7-dimethyl-8-[2-[(2R,4R)-tetrahydro-4-hydroxy-6-oxo-2H-pyran-2-yl]ethyl]-1-naphthalenyl-2-ethyl-butyrate]
reduction of total cholesterol levels [1]: reductions of cholesterol with both compounds were similar | inhibition of caspase 3/7 with respect to camptothecin ([2]; pretreatment 10 μM NST0037): 26% | inhibition of caspase 3/7 with respect to camptothecin ([2]; pretreatment 40 μM NST0037): 33% | histopathology: intestine ([3]; 2000 mg/Kg): Atrophy signs in the intestinal villi | histopathology: liver ([3]; 2000 mg/Kg): discrete inflammation areas | weight of the animals ([3]; 2000 mg/kg, 24 hours exposure in water): did not modify the weight | secreted Aβ(1-40) with respect to control cells ([4]; 10, 40 and 100 μM of NST0037, 48 hours): a reduction is obtained | secreted Aβ(1-42) with respect to control cells ([4]; 10 and 40 μM of NST0037, 48 hours): a reduction is obtained
